A word on the IC50: it is the concentration that gives 50% inhibition. As usually defined, the inhibition is the relative decrease from the control value, in per cent.

One data set deals with T1, PAF receptor (Oryctolagus cuniculus, UniProt G1TEI7).
T1 construct: from tissue; host or cells: rabbit washed platelets (intact)
Nature of the data set: [3H]PAF receptor binding assay using rabbit washed platelets. As to the method:
[^3H]PAF receptor binding assay is prepared using rabbit washed platelets. […] The reaction mixture was incubated at 4° C. for 2 hrs and then 5 mL of BSA-containing saline solution was added to terminate the reactions. The free and bound ligands were separated by filtration using a Whtman GF/C glass fiber filters which were presoaked with ice-cold water. The filters were rapidly washed with the same solution and then dried and placed into vials containing 10 mL of the scintillation fluid. Radioactivity was measured in a liquid scintillation counter (Beckman LS3801). The difference between the total radioactivity of bound [^3H]PAF in the absence and in the presence of excess unlabeled PAF is defined as specific binding of the radio-labeled ligand. In a batch of experiments, [^3H]PAF was incubated with different concentrations of PAF receptor antagonists, and the effect of the antagonist on the specific binding was expressed as percentage inhibition of the control.
Percent inhibition (%)=[100−(B/A×100)](%)
wherein A represents percent aggregation in control added and B represents percent aggregation in compound added.

Data set [1] relates to PAF-induced platelet aggregation. Nature of the data set: PAF-induced platelet aggregation in rabbit washed platelets. The format is cell-based. The conditions noted are these: PAF 5 nM, read-out: IC50, inhibition of platelet aggregation induced by PAF.
Protocol: Blood samples were collected from the marginal ear artery of New Zealand white rabbits. The blood was then treated to obtained platelet-rich plasma (PRP) mixed with EDTA. The platelet pellet was obtained from the EDTA-anticoagulated PRP by centrifugation. The pellet was then suspended in Tyrode solution and incubated. Platelet numbers were then counted.
The platelet suspension was stirred with solvent of test compound in solvent of different concentrations. Aggregation inducer PAF was then added to trigger the aggregation. Aggregation was determined by the transmission method using a platelet aggregation chromogenic kinetic system. The initial transmittance of the Ca^2+-containing Tyrode solution was taken as 0% aggregation and that of the platelet suspension as 100% aggregation. […] Percent inhibition by a compound was calculated.
Platelet suspension was prepared as follows. […]
Platelet aggregation was measured turbidimetrically with a light-transmission Platelet Aggregation Chromogenic Kinetic System PACK4 (Helena Laboratories, Beaumont, Tex., USA) with some modifications. […] The absorbance of the Tyrode's solution was taken as 0% aggregation and that of the platelet suspension as 100% aggregation. The extent of platelet aggregation was measured as the maximal increase of light transmission within 4 min after addition of the inducers. […]
Data set [2] relates to AA-induced platelet aggregation. Nature of the data set: AA-induced platelet aggregation in rabbit washed platelets. The format is cell-based. The conditions noted are these: AA 100 μM.
Protocol: Platelet suspension was prepared as follows. Blood was collected from the marginal ear vein of New Zealand White rabbits. The blood was then anticoagulated with acid citrate dextrose (ACD, 1:6, v/v) and centrifuged for 8 min at 1000×g at room temperature. The upper portion was collected as platelet-rich plasma (PRP) and mixed with EDTA to a final concentration of 5 mM. The platelet pellets were obtained from EDTA-mixed PRP by centrifugation for 12 min at 2000×g. The platelet pellets were suspended with Ca^2+-free Tyrode's solution, and then incubated with apyrase (1 unit mL^−1) for 15 min at 37° C. […] The concentration of platelets was adjusted to 2.5×10^8 platelets mL^−1.
Platelet aggregation was measured turbidimetrically with a light-transmission Platelet Aggregation Chromogenic Kinetic System PACK4 (Helena Laboratories, Beaumont, Tex., USA) with some modifications. […] Aggregation was induced with PAF (5 nM) and AA (100 μM). The absorbance of the Tyrode's solution was taken as 0% aggregation and that of the platelet suspension as 100% aggregation. The extent of platelet aggregation was measured as the maximal increase of light transmission within 4 min after addition of the inducers. When isopropanol was used as the solvent the final concentration was fixed at 0.5% (v/v) to eliminate the effect of the solvent. All glassware was siliconized.
For another data set, the system named is TXB2 formation. Put plainly: Thromboxane B2 formation induced by AA in rabbit washed platelets (EIA). The data set is classed as cell-based. The note with it: AA 100 μM, 6 min. As to the method:
(§1) After challenging platelets with AA (100 μM) for 6 min, 1 mM EDTA and 20 μM indomethacin were added to terminate the reaction. By centrifugation for 5 min at 4° C. and 10,000×g, the TXB2 and PGE2 in the supernatants were assayed using EIA kits according to the procedure described by the manufacturer.

The subject of another data set is PGE2 formation. Put plainly: Prostaglandin E2 formation induced by AA in rabbit washed platelets (EIA). The data set is classed as cell-based. The conditions noted are these: AA 100 μM. How it is done: as §1
Data set [3] relates to PAF-induced intracellular Ca2+ release. Nature of the data set: PAF-induced intracellular Ca2+ release in fluo-3-loaded platelets. The data set is classed as cell-based, rabbit. The note with it: PAF 5 nM, 2.5-50 μM, read-out: IC50, inhibition of PAF-induced intracellular Ca2+ release. How it is done: Platelets pelleted from PRP were resuspended in Ca^2+-free Tyrode's solution, and then incubated with fluo-3/AM (2 μM) at 37° C. for 30 min. In order to prevent leakage of dye, probenecid (2.5 mM) was added to the buffers throughout the experiments. After washing, the fluo-3-loaded platelets were finally suspended in Ca^2+-free Tyrode's solution without heparin at a concentration of 1.3×10^8 platelets mL^−1. The fluo-3-loaded platelets were preincubated with α-bulnesene in the presence of extracellular calcium (1 mM) at 37° C. for 2 min prior to addition of PAF. Fluorescence (Ex 505 nm, Em 530 nm) was measured with a fluorescence spectrophotometer (Model F4500; Hitachi, Tokyo, Japan). At the end of the experiment, the cells were treated with digitonin (20%) followed by the addition of EGTA (50 mM) to obtain the maximal and minimal fluorescence, respectively. [Ca^2+]i was calculated as described for fluo-3/AM using the Ca^2+-dye dissociation constant 864 nM.

A further data set deals with rabbit platelets. Put plainly: Cytotoxicity assay in rabbit platelets. The format is cell-based. The conditions noted are these: 12.5-50 μM, 30 min treatment, data not shown.

T1 sequence (G1TEI7 1-342): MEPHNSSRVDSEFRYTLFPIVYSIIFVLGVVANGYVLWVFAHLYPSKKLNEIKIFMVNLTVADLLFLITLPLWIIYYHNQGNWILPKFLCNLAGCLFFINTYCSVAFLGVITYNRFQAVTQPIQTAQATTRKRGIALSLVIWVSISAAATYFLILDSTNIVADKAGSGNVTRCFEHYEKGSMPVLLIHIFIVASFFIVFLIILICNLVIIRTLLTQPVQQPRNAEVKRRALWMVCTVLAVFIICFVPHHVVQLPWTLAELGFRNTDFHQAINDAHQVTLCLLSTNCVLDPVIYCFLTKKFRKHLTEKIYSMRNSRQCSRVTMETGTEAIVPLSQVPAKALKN

On to `CCCCCCCCCCCCCCCCCCNC(=O)OCC(COP(=O)([O-])OCC[n+]1ccsc1)OC` (centres unmarked) [CV-3988], for which the “percent inhibition for [3H]PAF binding” value at PAF receptor (10 μM, n=3) was found to be 10.10±1.74%. For the same compound, the IC50 in data set [1] was 2.4 ± 1.01 µM. Further, the “inhibition on AA-induced platelet aggregation” value in data set [2] was “no inhibition”.
As to `COc1ccc2c(c1)c(CC(=O)O)c(C)n2C(=O)c1ccc(Cl)cc1` [Indomethacin, indomethacin], the inhibition at 1 µM in the data set on TXB2 formation (Oryctolagus cuniculus, Platelet, 0.1 h, 1 μM, read-out: percent inhibition of TXB2 formation) stood at 98.05 ± 0.16%. Further, in the data set with PGE2 formation (indomethacin, concentration not restated (1 μM as positive control)), the “PGE2 formation in the presence of AA” value was “inhibited”.
With `O=C(O)c1cc2cc(Cc3cccnc3)ccc2o1` [furegrelate], the inhibition at 300 µM in the data set with TXB2 formation (Oryctolagus cuniculus, Platelet, 0.1 h, 300 μM, read-out: percent inhibition of TXB2 formation) came to 96.49 ± 0.78%. Besides, in the data set on PGE2 formation (300 μM), the “PGE2 formation in the presence of AA” value was “reversely enhanced”.
Take `C=C(C)C1CCC(C)=C2CCC(C)C2C1` (stereo not drawn) [α-bulnesene, 1β,4-dimethyl-7β-isopropenyl-1,2,3,5,6,7,8,8aα-octahydroazulene]: the IC50 on PAF receptor (0.2 nM [3H]PAF, 4° C., 2 hrs) was determined as 17.6 ± 5.68 µM; in data set [1], 24.5 ± 2.45 µM; in data set [3] it was 19.6 ± 1.32 µM; in data set [2] (read-out: IC50, inhibition of platelet aggregation induced by AA), 42.5 ± 5.97 µM. In addition, the “TXB2 formation stimulated by AA” value in the data set on TXB2 formation (25-100 μM) is listed as “inhibited”. The “PGE2 formation in the presence of AA” value with PGE2 formation (25-100 μM, 6 min) was “inhibited”. Moreover, the “toxicity in rabbit platelets” value in the data set on rabbit platelets was “did not have any toxicity”.
